Experimental data reported in ChEMBL document CHEMBL1201862, “PubChem BioAssay data set” (2004).
Calls of active or inactive are those of the source.

Assays:
[1] = target: T1, Long-chain-fatty-acid--AMP ligase FadD28 (Mycobacterium tuberculosis, UniProt P9WQ59); assay: Fluorescence polarization aasay to screen for inhibitors that compete for the binding of FadD28 to a bisubstrate Measured in Biochemical System Using Plate Reader - 2147-01_Inhibitor_Dose_CherryPick_Activity.; assay type: functional, Mycobacterium tuberculosis H37Rv
T1 sequence (P9WQ59 whole entry): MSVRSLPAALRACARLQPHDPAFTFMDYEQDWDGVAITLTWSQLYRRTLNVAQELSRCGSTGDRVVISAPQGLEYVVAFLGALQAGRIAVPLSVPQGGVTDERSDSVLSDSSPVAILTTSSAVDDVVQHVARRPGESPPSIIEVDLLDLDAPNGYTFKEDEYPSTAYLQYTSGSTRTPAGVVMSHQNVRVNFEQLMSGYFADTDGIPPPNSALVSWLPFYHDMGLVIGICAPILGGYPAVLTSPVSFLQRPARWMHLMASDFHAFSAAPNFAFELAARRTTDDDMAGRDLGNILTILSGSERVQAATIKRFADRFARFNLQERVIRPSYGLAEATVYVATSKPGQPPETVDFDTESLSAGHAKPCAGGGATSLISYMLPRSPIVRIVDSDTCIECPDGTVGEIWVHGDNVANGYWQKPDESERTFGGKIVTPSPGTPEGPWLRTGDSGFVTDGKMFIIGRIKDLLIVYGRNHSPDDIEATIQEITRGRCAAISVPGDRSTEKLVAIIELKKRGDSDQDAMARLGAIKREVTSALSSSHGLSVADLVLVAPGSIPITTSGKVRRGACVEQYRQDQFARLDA

[2] = target: SUMO-activating enzyme (Homo sapiens, UniProt Q9UBT2); assay: blockers of UBC9-mediated SUMO conjugation – biochemical, AlphaScreen, SUMOylation inhibitor project, confirmation (AID 2018); assay type: functional
[3] = target: T2, Hexokinase HKDC1 (Homo sapiens, UniProt Q2TB90); assay: inhibition of HKDC1 glucose phosphorylation – biochemical, W721R variant, dose response (AID 504729); assay type: functional
T2 sequence (Q2TB90 whole entry): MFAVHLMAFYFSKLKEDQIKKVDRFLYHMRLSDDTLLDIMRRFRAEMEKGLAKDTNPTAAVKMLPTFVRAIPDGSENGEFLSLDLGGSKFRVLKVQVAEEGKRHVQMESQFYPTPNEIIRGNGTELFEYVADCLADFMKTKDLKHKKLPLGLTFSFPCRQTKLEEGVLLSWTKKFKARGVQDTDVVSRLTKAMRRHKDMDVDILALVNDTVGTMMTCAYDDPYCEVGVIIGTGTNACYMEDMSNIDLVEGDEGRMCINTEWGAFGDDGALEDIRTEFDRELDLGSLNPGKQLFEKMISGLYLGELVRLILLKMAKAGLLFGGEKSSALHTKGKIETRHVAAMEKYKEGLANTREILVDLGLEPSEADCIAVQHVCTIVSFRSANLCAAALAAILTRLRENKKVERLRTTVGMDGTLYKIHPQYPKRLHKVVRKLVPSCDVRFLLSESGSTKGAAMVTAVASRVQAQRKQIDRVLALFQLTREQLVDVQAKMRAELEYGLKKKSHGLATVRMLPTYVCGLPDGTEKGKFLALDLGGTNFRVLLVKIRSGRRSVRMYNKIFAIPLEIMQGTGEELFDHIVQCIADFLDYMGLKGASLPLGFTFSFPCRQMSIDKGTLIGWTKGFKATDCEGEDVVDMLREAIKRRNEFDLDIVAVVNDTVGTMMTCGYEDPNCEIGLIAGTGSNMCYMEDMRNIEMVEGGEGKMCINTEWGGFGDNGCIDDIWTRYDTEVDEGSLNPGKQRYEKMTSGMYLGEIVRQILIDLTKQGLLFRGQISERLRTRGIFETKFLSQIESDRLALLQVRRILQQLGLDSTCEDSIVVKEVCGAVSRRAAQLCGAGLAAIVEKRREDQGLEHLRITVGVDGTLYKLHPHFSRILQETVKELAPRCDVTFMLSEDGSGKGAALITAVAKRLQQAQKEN

[4] = target: T3, Sentrin-specific protease 8 (Homo sapiens, UniProt Q96LD8); assay type: functional
T3 sequence (Q96LD8 whole entry): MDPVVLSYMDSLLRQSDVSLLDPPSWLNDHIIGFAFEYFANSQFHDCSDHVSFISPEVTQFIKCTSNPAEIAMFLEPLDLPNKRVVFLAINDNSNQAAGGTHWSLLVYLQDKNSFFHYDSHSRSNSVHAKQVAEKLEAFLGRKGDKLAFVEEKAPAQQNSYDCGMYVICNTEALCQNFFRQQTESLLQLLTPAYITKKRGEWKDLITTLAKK

[5] = target: T3, Sentrin-specific protease 8; assay type: functional; remark: listed apart in the source
[6] = target: Serine/threonine-protein phosphatase PP1-alpha catalytic subunit (Homo sapiens, UniProt P62136); assay: inhibition of protein phosphatase 1 activity – biochemical, fluorescence, dose response (AID 2394)
[7] = tested on: Streptococcus; assay: GAS UMAA2166 growth inhibition – luminescence, BacTiterGlo, counter-screen for streptokinase expression inhibitor project, dose response (AID 1915); assay type: functional, organism-based;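 further: potency for reduction of bacterial viability or growth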
[8] = luciferase reporter signal suppression in cells – H4 neuroglioma cells, luminescence, dose response (AID 1990); assay type: functional, cell-based

SUMO-activating enzyme, sequence (Q9UBE0 whole entry): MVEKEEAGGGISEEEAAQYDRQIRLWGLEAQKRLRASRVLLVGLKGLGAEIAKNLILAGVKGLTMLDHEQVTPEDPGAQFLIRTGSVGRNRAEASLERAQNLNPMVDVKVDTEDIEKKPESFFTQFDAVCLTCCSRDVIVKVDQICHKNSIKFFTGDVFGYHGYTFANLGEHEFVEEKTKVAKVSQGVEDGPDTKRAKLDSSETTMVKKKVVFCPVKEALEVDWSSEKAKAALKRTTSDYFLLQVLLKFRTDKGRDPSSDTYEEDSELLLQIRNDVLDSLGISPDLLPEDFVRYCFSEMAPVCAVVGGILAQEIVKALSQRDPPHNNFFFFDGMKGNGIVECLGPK
SUMO-activating enzyme, sequence (Q9UBT2 whole entry): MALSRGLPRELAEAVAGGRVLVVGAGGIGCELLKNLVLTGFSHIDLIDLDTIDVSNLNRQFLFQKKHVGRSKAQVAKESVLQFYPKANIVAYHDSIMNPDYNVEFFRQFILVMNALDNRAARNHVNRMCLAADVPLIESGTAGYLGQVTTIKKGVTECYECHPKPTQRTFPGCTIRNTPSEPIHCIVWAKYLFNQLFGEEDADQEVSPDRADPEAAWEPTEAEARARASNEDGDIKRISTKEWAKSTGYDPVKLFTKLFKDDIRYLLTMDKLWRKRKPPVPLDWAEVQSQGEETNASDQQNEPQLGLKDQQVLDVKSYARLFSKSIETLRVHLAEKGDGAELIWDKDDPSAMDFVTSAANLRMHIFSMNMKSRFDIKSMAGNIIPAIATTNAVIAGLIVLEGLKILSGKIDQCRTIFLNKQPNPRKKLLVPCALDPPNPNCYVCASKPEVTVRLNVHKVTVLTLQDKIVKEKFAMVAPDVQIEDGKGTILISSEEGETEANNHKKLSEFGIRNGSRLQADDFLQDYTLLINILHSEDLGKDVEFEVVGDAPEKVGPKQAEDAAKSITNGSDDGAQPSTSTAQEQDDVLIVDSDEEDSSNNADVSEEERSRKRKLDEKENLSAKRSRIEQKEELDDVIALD
Serine/threonine-protein phosphatase PP1-alpha catalytic subunit, sequence (P62136 whole entry): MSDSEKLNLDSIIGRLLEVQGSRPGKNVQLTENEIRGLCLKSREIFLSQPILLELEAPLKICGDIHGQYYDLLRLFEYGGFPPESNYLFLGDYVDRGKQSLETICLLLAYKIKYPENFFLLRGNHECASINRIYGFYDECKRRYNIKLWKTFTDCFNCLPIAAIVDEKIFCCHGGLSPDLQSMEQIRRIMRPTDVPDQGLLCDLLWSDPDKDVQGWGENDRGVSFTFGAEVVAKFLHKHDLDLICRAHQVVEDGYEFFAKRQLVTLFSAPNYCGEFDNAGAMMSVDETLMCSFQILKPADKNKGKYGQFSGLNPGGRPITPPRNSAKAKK

For `O=C1C=C(Nc2ccccc2C(=O)O)c2ccccc2C1=O`, the AC50 [1] was > 100 µM (inactive), the IC50 [2] was 1.9 µM (active) and the IC50 [3] was 12.4 µM (active).

With `COc1ccc(NC(=S)Nc2ccc3nsnc3c2)cc1` the IC50 [4] was 6.61 µM (active), the IC50 [5] was 2.3 µM (active) and the IC50 [6] was > 67 µM (not active).

With `CC(C)(C)c1cc[n+](C2=C([N-]S(=O)(=O)c3ccccc3)C(=O)c3ccccc3C2=O)cc1` the EC50 [7] was 5.15 µM (active) and the EC50 [8] was > 120 µM (not active).
